Data reported in ChEMBL document CHEMBL1909046, “DrugMatrix in vitro pharmacology data”.

Target: Beta-3 adrenergic receptor (Homo sapiens, UniProt P13945)
Assay: DRUGMATRIX: Adrenergic beta3 radioligand binding (ligand: [125I] Cyanopindolol)
Type: cell membranes, HEK293, Membrane
Details: hek293; Not Active = under 50% inhibition at 10 µM

Beta-3 adrenergic receptor, sequence (P13945 whole entry): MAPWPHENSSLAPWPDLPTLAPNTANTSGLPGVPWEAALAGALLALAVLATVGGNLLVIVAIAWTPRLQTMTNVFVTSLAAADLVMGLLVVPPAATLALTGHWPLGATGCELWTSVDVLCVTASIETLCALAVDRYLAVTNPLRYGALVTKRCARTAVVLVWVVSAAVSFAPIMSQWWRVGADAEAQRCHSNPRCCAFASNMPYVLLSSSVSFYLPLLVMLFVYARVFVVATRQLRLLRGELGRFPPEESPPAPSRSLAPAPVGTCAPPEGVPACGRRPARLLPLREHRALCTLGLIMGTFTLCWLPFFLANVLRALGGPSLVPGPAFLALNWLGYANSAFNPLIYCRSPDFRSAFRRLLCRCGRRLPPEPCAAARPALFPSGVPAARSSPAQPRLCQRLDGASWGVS

Row | SMILES | IC50
1 | COc1cc2c3cc1Oc1cc(ccc1O)C[C@@H]1c4c(cc(OC)c(O)c4Oc4ccc(cc4)C[C@@H]3N(C)CC2)CC[N+]1(C)C.[Cl-] | Not Active
2 | CN(Cc1ccc(C(C)(C)C)cc1)Cc1cccc2ccccc12 [BUTENAFINE] | Not Active
3 | Sc1ncnc2nc[nH]c12 [MERCAPTOPURINE ANHYDROUS] | Not Active
4 | CC(C)(C)NCC(O)c1cc(Cl)c(N)c(Cl)c1 (stereo unspecified) [CLENBUTEROL] | Not Active
5 | Nc1nc2c(ncn2COCCO)c(=O)[nH]1 [ACYCLOVIR] | Not Active
6 | c1ccc2c(c1)c1cccc3ccc4cccc2c4c31 [BENZO[E]PYRENE] | Not Active
7 | Cc1ccc(N(CC2=NCCN2)c2cccc(O)c2)cc1 [PHENTOLAMINE] | Not Active
8 | CC(C)(Oc1ccc(Cl)cc1)C(=O)O [CLOFIBRIC ACID] | Not Active
9 | C[C@]12CC[C@@H]3c4ccc(O)cc4CC[C@H]3[C@@H]1CCC2=O [ESTRONE] | Not Active
10 | CN(C)c1nc(N(C)C)nc(N(C)C)n1 [ALTRETAMINE] | Not Active
11 | CCCN1C[C@H](CSC)C[C@@H]2c3cccc4[nH]cc(c34)C[C@H]21 [PERGOLIDE] | Not Active

Target: C-C chemokine receptor type 5 (Homo sapiens, UniProt P51681); note: in other assays of this panel Not Active means under 50% inhibition at 10 µM
Type: cell membranes, Membrane
Details: hek293

C-C chemokine receptor type 5, sequence (P51681 whole entry): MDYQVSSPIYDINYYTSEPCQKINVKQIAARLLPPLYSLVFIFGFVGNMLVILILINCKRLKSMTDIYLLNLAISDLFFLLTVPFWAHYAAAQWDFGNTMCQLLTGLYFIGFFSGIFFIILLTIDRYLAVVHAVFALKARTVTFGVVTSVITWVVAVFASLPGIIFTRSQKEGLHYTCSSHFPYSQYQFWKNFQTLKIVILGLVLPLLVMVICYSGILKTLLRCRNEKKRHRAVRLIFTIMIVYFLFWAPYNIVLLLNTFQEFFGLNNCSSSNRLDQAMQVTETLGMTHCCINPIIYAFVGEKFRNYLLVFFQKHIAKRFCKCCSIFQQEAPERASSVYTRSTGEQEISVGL

Row | SMILES | IC50
12 | COc1cc2c3cc1Oc1cc(ccc1O)C[C@@H]1c4c(cc(OC)c(O)c4Oc4ccc(cc4)C[C@@H]3N(C)CC2)CC[N+]1(C)C.[Cl-] | Not Active
13 | CN(Cc1ccc(C(C)(C)C)cc1)Cc1cccc2ccccc12 [BUTENAFINE] | Not Active
14 | Sc1ncnc2nc[nH]c12 [MERCAPTOPURINE ANHYDROUS] | Not Active
15 | CC(C)(C)NCC(O)c1cc(Cl)c(N)c(Cl)c1 (stereo unspecified) [CLENBUTEROL] | Not Active
16 | Nc1nc2c(ncn2COCCO)c(=O)[nH]1 [ACYCLOVIR] | Not Active
17 | c1ccc2c(c1)c1cccc3ccc4cccc2c4c31 [BENZO[E]PYRENE] | Not Active
18 | Cc1ccc(N(CC2=NCCN2)c2cccc(O)c2)cc1 [PHENTOLAMINE] | Not Active
19 | CC(C)(Oc1ccc(Cl)cc1)C(=O)O [CLOFIBRIC ACID] | Not Active
20 | C[C@]12CC[C@@H]3c4ccc(O)cc4CC[C@H]3[C@@H]1CCC2=O [ESTRONE] | Not Active
21 | CN(C)c1nc(N(C)C)nc(N(C)C)n1 [ALTRETAMINE] | Not Active
22 | CCCN1C[C@H](CSC)C[C@@H]2c3cccc4[nH]cc(c34)C[C@H]21 [PERGOLIDE] | Not Active

Target: D(1A) dopamine receptor (Homo sapiens, UniProt P21728)
Assay: DRUGMATRIX: Dopamine D1 radioligand binding (ligand: [3H] SCH-23390)
Type: cell membranes, CHO, Membrane
Details: cho; Not Active = under 50% inhibition at 10 µM

D(1A) dopamine receptor, sequence (P21728 whole entry): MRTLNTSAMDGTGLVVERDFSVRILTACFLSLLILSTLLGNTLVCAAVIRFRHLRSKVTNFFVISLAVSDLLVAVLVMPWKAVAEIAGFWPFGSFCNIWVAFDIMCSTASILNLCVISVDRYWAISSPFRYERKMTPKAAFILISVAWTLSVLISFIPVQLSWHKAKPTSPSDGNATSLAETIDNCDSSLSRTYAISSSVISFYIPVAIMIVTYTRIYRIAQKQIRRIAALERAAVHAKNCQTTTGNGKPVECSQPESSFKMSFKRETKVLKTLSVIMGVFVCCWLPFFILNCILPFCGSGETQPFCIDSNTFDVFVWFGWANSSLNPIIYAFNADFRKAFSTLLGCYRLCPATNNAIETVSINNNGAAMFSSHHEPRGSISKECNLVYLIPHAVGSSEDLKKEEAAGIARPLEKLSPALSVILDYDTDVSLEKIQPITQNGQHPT

Row | SMILES | IC50
23 | COc1cc2c3cc1Oc1cc(ccc1O)C[C@@H]1c4c(cc(OC)c(O)c4Oc4ccc(cc4)C[C@@H]3N(C)CC2)CC[N+]1(C)C.[Cl-] | Not Active
24 | CN(Cc1ccc(C(C)(C)C)cc1)Cc1cccc2ccccc12 [BUTENAFINE] | Not Active
25 | Sc1ncnc2nc[nH]c12 [MERCAPTOPURINE ANHYDROUS] | Not Active
26 | CC(C)(C)NCC(O)c1cc(Cl)c(N)c(Cl)c1 (stereo unspecified) [CLENBUTEROL] | Not Active
27 | Nc1nc2c(ncn2COCCO)c(=O)[nH]1 [ACYCLOVIR] | Not Active
28 | c1ccc2c(c1)c1cccc3ccc4cccc2c4c31 [BENZO[E]PYRENE] | Not Active
29 | Cc1ccc(N(CC2=NCCN2)c2cccc(O)c2)cc1 [PHENTOLAMINE] | Not Active
30 | CC(C)(Oc1ccc(Cl)cc1)C(=O)O [CLOFIBRIC ACID] | Not Active
31 | C[C@]12CC[C@@H]3c4ccc(O)cc4CC[C@H]3[C@@H]1CCC2=O [ESTRONE] | Not Active
32 | CN(C)c1nc(N(C)C)nc(N(C)C)n1 [ALTRETAMINE] | Not Active

Target: T1, D(4) dopamine receptor (Homo sapiens, UniProt P21917)
T1 sequence (P21917 whole entry): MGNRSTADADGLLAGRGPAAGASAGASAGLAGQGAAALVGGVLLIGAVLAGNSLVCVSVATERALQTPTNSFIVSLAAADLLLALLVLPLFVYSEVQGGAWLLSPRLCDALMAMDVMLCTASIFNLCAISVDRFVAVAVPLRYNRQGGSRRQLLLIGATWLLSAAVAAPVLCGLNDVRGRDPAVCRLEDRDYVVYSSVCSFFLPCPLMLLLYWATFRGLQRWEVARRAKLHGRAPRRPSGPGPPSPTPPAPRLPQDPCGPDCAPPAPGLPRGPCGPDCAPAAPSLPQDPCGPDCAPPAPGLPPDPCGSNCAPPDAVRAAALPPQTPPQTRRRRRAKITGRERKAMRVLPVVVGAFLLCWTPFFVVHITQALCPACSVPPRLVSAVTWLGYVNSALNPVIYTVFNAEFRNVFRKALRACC
Assay: DRUGMATRIX: Dopamine D4.2 radioligand binding (ligand: [3H] Spiperone)
Type: cell membranes, CHO-K1, Membrane
Details: cho-k1; Not Active = under 50% inhibition at 10 µM

Row | SMILES | IC50
33 | COc1cc2c3cc1Oc1cc(ccc1O)C[C@@H]1c4c(cc(OC)c(O)c4Oc4ccc(cc4)C[C@@H]3N(C)CC2)CC[N+]1(C)C.[Cl-] | Not Active
34 | CN(Cc1ccc(C(C)(C)C)cc1)Cc1cccc2ccccc12 [BUTENAFINE] | Not Active
35 | Sc1ncnc2nc[nH]c12 [MERCAPTOPURINE ANHYDROUS] | Not Active
36 | CC(C)(C)NCC(O)c1cc(Cl)c(N)c(Cl)c1 (stereo unspecified) [CLENBUTEROL] | Not Active
37 | Nc1nc2c(ncn2COCCO)c(=O)[nH]1 [ACYCLOVIR] | Not Active
38 | c1ccc2c(c1)c1cccc3ccc4cccc2c4c31 [BENZO[E]PYRENE] | Not Active
39 | Cc1ccc(N(CC2=NCCN2)c2cccc(O)c2)cc1 [PHENTOLAMINE] | Not Active
40 | CC(C)(Oc1ccc(Cl)cc1)C(=O)O [CLOFIBRIC ACID] | Not Active
41 | C[C@]12CC[C@@H]3c4ccc(O)cc4CC[C@H]3[C@@H]1CCC2=O [ESTRONE] | Not Active
42 | CN(C)c1nc(N(C)C)nc(N(C)C)n1 [ALTRETAMINE] | Not Active
43 | CCCN1C[C@H](CSC)C[C@@H]2c3cccc4[nH]cc(c34)C[C@H]21 [PERGOLIDE] | Not Active

Target: T2, Leukotriene C4 synthase (Cavia porcellus, UniProt A6XA80);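 note: enzyme inhibition assay of leukotriene C4 synthase, using LTA4 as the substrate; in other assays of this panel Not Active means under 50% inhibition at 10 µM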
T2 sequence (A6XA80 whole entry): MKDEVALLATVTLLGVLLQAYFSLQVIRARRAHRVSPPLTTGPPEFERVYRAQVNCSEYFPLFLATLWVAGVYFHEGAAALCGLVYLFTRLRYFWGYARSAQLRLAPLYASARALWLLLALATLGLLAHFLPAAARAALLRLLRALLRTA
Type: tissue-based, Lung
Details: not given

Row | SMILES | IC50
44 | COc1cc2c3cc1Oc1cc(ccc1O)C[C@@H]1c4c(cc(OC)c(O)c4Oc4ccc(cc4)C[C@@H]3N(C)CC2)CC[N+]1(C)C.[Cl-] | Not Active
45 | CN(Cc1ccc(C(C)(C)C)cc1)Cc1cccc2ccccc12 [BUTENAFINE] | Not Active
46 | Sc1ncnc2nc[nH]c12 [MERCAPTOPURINE ANHYDROUS] | Not Active
47 | CC(C)(C)NCC(O)c1cc(Cl)c(N)c(Cl)c1 (stereo unspecified) [CLENBUTEROL] | Not Active
48 | Nc1nc2c(ncn2COCCO)c(=O)[nH]1 [ACYCLOVIR] | Not Active
49 | c1ccc2c(c1)c1cccc3ccc4cccc2c4c31 [BENZO[E]PYRENE] | Not Active
50 | Cc1ccc(N(CC2=NCCN2)c2cccc(O)c2)cc1 [PHENTOLAMINE] | Not Active
51 | CC(C)(Oc1ccc(Cl)cc1)C(=O)O [CLOFIBRIC ACID] | Not Active
52 | C[C@]12CC[C@@H]3c4ccc(O)cc4CC[C@H]3[C@@H]1CCC2=O [ESTRONE] | Not Active
53 | CN(C)c1nc(N(C)C)nc(N(C)C)n1 [ALTRETAMINE] | Not Active
54 | CCCN1C[C@H](CSC)C[C@@H]2c3cccc4[nH]cc(c34)C[C@H]21 [PERGOLIDE] | Not Active

Target: T3, Cytochrome P450 1A2 (Homo sapiens, UniProt P05177); note: in other assays of this panel Not Active means under 50% inhibition at 10 µM
T3 sequence (P05177 whole entry): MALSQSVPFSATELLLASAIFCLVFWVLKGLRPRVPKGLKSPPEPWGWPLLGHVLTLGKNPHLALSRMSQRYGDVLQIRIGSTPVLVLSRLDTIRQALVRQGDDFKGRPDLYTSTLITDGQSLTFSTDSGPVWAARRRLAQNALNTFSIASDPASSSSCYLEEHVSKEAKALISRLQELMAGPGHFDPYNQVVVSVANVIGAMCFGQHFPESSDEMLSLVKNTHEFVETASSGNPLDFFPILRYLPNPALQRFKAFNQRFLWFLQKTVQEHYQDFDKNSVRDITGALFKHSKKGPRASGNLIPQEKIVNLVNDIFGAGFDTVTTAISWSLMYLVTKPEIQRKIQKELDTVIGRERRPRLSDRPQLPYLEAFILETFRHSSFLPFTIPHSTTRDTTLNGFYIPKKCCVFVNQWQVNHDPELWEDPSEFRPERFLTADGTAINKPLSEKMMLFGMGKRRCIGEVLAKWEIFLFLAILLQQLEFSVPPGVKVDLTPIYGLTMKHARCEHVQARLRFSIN
Details: bti-tn-5b1-4

Row | SMILES | IC50 | Ki
55 | COc1cc2c3cc1Oc1cc(ccc1O)C[C@@H]1c4c(cc(OC)c(O)c4Oc4ccc(cc4)C[C@@H]3N(C)CC2)CC[N+]1(C)C.[Cl-] | Not Active | Not Active
56 | CN(Cc1ccc(C(C)(C)C)cc1)Cc1cccc2ccccc12 [BUTENAFINE] | Not Active | Not Active
57 | Sc1ncnc2nc[nH]c12 [MERCAPTOPURINE ANHYDROUS] | Not Active | Not Active
58 | CC(C)(C)NCC(O)c1cc(Cl)c(N)c(Cl)c1 (stereo unspecified) [CLENBUTEROL] | Not Active | Not Active
59 | Nc1nc2c(ncn2COCCO)c(=O)[nH]1 [ACYCLOVIR] | Not Active | Not Active
60 | Cc1ccc(N(CC2=NCCN2)c2cccc(O)c2)cc1 [PHENTOLAMINE] | Not Active | Not Active
61 | CCCN1C[C@H](CSC)C[C@@H]2c3cccc4[nH]cc(c34)C[C@H]21 [PERGOLIDE] | Not Active | Not Active

Target: Voltage-gated inwardly rectifying potassium channel KCNH2 (Homo sapiens, UniProt Q12809); note: in other assays of this panel Not Active means under 50% inhibition at 10 µM
Details: hek293

Voltage-gated inwardly rectifying potassium channel KCNH2, sequence (Q12809 whole entry): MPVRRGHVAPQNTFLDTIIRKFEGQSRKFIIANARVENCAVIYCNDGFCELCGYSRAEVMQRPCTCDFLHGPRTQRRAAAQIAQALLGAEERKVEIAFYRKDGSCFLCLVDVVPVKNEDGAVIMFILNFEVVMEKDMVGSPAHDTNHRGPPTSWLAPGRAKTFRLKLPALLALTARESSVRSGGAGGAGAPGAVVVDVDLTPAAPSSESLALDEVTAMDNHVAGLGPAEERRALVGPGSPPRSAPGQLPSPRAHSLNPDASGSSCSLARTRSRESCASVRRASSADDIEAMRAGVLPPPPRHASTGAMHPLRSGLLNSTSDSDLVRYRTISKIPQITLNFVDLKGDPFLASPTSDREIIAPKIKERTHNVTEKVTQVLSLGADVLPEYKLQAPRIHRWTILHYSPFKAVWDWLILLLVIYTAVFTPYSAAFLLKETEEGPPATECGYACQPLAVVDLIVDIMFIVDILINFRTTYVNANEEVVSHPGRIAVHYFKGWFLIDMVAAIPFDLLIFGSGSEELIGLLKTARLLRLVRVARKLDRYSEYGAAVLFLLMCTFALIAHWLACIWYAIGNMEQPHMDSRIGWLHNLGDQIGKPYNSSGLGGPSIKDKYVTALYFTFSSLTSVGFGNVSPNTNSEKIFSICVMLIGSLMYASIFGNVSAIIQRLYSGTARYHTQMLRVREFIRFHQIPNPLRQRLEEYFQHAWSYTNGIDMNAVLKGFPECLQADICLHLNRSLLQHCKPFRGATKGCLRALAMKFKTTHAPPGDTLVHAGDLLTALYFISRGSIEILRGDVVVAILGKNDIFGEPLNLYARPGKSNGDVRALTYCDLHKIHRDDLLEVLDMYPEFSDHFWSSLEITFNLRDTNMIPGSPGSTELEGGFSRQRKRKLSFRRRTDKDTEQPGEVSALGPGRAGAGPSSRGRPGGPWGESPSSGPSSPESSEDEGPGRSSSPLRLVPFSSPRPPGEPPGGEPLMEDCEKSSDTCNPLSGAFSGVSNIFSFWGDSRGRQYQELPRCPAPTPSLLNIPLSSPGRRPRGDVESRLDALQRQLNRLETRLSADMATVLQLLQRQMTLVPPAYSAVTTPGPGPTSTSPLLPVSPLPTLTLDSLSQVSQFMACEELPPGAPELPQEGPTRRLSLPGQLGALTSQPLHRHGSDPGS

Row | SMILES | IC50 | Ki
62 | COc1cc2c3cc1Oc1cc(ccc1O)C[C@@H]1c4c(cc(OC)c(O)c4Oc4ccc(cc4)C[C@@H]3N(C)CC2)CC[N+]1(C)C.[Cl-] | Not Active | Not Active
63 | CN(Cc1ccc(C(C)(C)C)cc1)Cc1cccc2ccccc12 [BUTENAFINE] | Not Active | Not Active
64 | Sc1ncnc2nc[nH]c12 [MERCAPTOPURINE ANHYDROUS] | Not Active | Not Active
65 | CC(C)(C)NCC(O)c1cc(Cl)c(N)c(Cl)c1 (stereo unspecified) [CLENBUTEROL] | Not Active | Not Active
66 | c1ccc2c(c1)c1cccc3ccc4cccc2c4c31 [BENZO[E]PYRENE] | Not Active | Not Active
67 | CC(C)(Oc1ccc(Cl)cc1)C(=O)O [CLOFIBRIC ACID] | Not Active | Not Active
68 | C[C@]12CC[C@@H]3c4ccc(O)cc4CC[C@H]3[C@@H]1CCC2=O [ESTRONE] | Not Active | Not Active
69 | CN(C)c1nc(N(C)C)nc(N(C)C)n1 [ALTRETAMINE] | Not Active | Not Active
70 | CCCN1C[C@H](CSC)C[C@@H]2c3cccc4[nH]cc(c34)C[C@H]21 [PERGOLIDE] | Not Active | Not Active
